Experimental data reported in the NIST ThermoML archive (doi:10.1021/je3010535).
“And” between values parts separate entries of the source, which are not always exact repeats. Identical values can stand only once. Numbers after ± are expanded uncertainties.

Experiments:
[1] = Henry's Law constant (molality scale); of the first substance listed, at infinite dilution; mn = molality of the nth substance listed, in mol/kg; settings: Liquid, Chromatography, m1 = 0
[2] = Henry's Law constant (molality scale); of the first substance listed, at infinite dilution; xn = mol fraction of the nth substance listed; settings: Liquid, Chromatography, x1 = 0

| Structure (SMILES) | Henry's Law constant ([1]; 274.15 K) [kPa·kg/mol] | Henry's Law constant ([1]; 294.65 K) | Henry's Law constant ([1]; 296.15 K) [kPa·kg/mol] | Henry's Law constant ([1]; 310.15 K) [kPa·kg/mol] | Henry's Law constant ([1]; 331.15 K) [kPa·kg/mol] | Henry's Law constant ([2]; 274.15 K) [kPa·kg/mol] | Henry's Law constant ([2]; 313.15 K) [kPa·kg/mol] | Henry's Law constant ([2]; 326.15 K) [kPa·kg/mol] | Henry's Law constant ([2]; 294.65 K) | Henry's Law constant ([2]; 296.15 K) [kPa·kg/mol] | Henry's Law constant ([2]; 310.15 K) [kPa·kg/mol] | Henry's Law constant ([2]; 320.15 K) [kPa·kg/mol] | Henry's Law constant ([2]; 331.15 K) [kPa·kg/mol] | further results |
| --- | --- | --- | --- | --- | --- | --- | --- | --- | --- | --- | --- | --- | --- | --- |
| ClCC(Cl)(Cl)Cl [1,1,1,2-tetrachloroethane] + O | 60.3 ± 18 | 184 kPa·kg/mol and 168 kPa·kg/mol | 199 ± 60 | 388 ± 120 | 1090 ± 330 | – | – | – | – | – | – | – | – | Henry's Law constant ([1]; 326.15 K): 832 ± 250 kPa·kg/mol |
| ClCC(Cl)Cl [1,1,2-trichloroethane] + O | 16.9 ± 5.1 | 62 kPa·kg/mol and 60.4 kPa·kg/mol | 65 ± 20 | 148 ± 44 | 419 ± 130 | – | – | – | – | – | – | – | – | Henry's Law constant ([1]; 320.15 K): 263 ± 79 kPa·kg/mol |
| Clc1ccc(Cl)c(Cl)c1 [1,2,4-trichlorobenzene] + O | 26.9 ± 11 | 75.2 kPa·kg/mol and 81.4 kPa·kg/mol | 83.2 ± 33 | 148 ± 59 | 425 ± 170 | – | – | – | – | – | – | – | – | Henry's Law constant ([1]; 320.15 K): 260 ± 100 kPa·kg/mol; Henry's Law constant ([1]; 326.15 K): 730 ± 290 kPa·kg/mol |
| Cc1ccc(C)c(C)c1 [1,2,4-trimethylbenzene] + O | 82.9 ± 33 | 235 kPa·kg/mol and 255 kPa·kg/mol | 292 ± 120 | 497 ± 200 | 1390 ± 550 | – | – | – | – | – | – | – | – | Henry's Law constant ([1]; 313.15 K): 974 ± 390 kPa·kg/mol; Henry's Law constant ([1]; 326.15 K): 1770 ± 710 kPa·kg/mol |
| BrCCBr [1,2-dibromoethane] + O | 12.7 ± 3.8 | 54.1 kPa·kg/mol and 41.2 kPa·kg/mol | 57.8 ± 17 | 130 ± 39 | 333 ± 100 | – | – | – | – | – | – | – | – | Henry's Law constant ([1]; 320.15 K): 218 ± 66 kPa·kg/mol |
| Cc1ccccc1C [1,2-dimethylbenzene] + O | 96.1 ± 29 | 281 kPa·kg/mol and 291 kPa·kg/mol | 318 ± 95 | 321 ± 96 | 1360 ± 410 | – | – | – | – | – | – | – | – | Henry's Law constant ([1]; 313.15 K): 781 ± 230 kPa·kg/mol; Henry's Law constant ([1]; 326.15 K): 1400 ± 420 kPa·kg/mol |
| Clc1cccc(Cl)c1 [1,3-dichlorobenzene] + O | 50.3 ± 20 | 160 kPa·kg/mol and 164 kPa·kg/mol | 185 ± 74 | 309 ± 120 | 768 ± 310 | – | – | – | – | – | – | – | – | Henry's Law constant ([1]; 313.15 K): 552 ± 220 kPa·kg/mol; Henry's Law constant ([1]; 320.15 K): 519 ± 210 kPa·kg/mol; Henry's Law constant ([1]; 326.15 K): 967 ± 390 kPa·kg/mol |
| ClCCCCl [1,3-dichloropropane] + O | 18.8 ± 5.6 | 65 kPa·kg/mol and 65.9 kPa·kg/mol | 70.6 ± 21 | 156 ± 47 | 421 ± 130 | – | – | – | – | – | – | – | – | Henry's Law constant ([1]; 320.15 K): 287 ± 86 kPa·kg/mol |
| Cc1cccc(C)c1 [1,3-dimethylbenzene] + O | 147 ± 59 | 381 kPa·kg/mol and 439 kPa·kg/mol | 457 ± 180 | – | 1810 ± 730 | – | – | – | – | – | – | – | – | Henry's Law constant ([1]; 313.15 K): 1170 ± 470 kPa·kg/mol; Henry's Law constant ([1]; 326.15 K): 2090 ± 840 kPa·kg/mol |
| Clc1ccc(Cl)cc1 [1,4-dichlorobenzene] + O | 52.8 ± 21 | 136 kPa·kg/mol and 149 kPa·kg/mol | 160 ± 64 | 263 ± 110 | 686 ± 270 | – | – | – | – | – | – | – | – | Henry's Law constant ([1]; 313.15 K): 476 ± 190 kPa·kg/mol; Henry's Law constant ([1]; 320.15 K): 451 ± 180 kPa·kg/mol; Henry's Law constant ([1]; 326.15 K): 804 ± 320 kPa·kg/mol |
| FC(F)(Cl)Cl [dichlorodifluoromethane] + O | – | – | – | – | – | 1660 ± 500 | 40000 ± 12000 | 22600 ± 6800 | – | – | – | – | – | – |
| ClCCl [dichloromethane] + O | – | – | – | – | – | 85.1 ± 26 | 523 ± 160 | 686 ± 210 | 222 kPa·kg/mol and 214 kPa·kg/mol | 250 ± 75 | – | – | – | – |
| CCOCC [diethyl ether] + O | – | – | – | – | – | 16 ± 5 | – | – | 68 kPa·kg/mol and 70 kPa·kg/mol | 77 ± 23 | 206 ± 62 | 427 ± 130 | 803 ± 240 | – |
| CI [iodomethane] + O | – | – | – | – | – | 251 ± 75 | 814 ± 240 | 1560 ± 470 | – | – | – | – | – | – |
| C=C(C)C#N [isopropenylnitrile] + O | – | – | – | – | – | 2.92 ± 1.2 | – | – | 14.7 kPa·kg/mol and 16.8 kPa·kg/mol | 16.7 ± 6.7 | 50.9 ± 20 | 68.5 ± 27 | 147 ± 59 | Henry's Law constant ([2]; 333.15 K): 261 ± 100 kPa·kg/mol |
| COC(C)=O [methyl ethanoate] + O | – | – | – | – | – | 1.06 ± 0.42 | – | – | 5.33 kPa·kg/mol and 7.39 kPa·kg/mol | 7.53 ± 3 | 34.1 ± 14 | 52.4 ± 21 | 83.1 ± 33 | Henry's Law constant ([2]; 333.15 K): 125 ± 50 kPa·kg/mol |
| C=C(C)C(=O)OC [methyl methacrylate] + O | – | – | – | – | – | 2.57 ± 0.77 | – | – | 24.2 kPa·kg/mol and 12.7 kPa·kg/mol | 24.5 ± 7.4 | 85.1 ± 26 | 132 ± 40 | 250 ± 75 | – |
| c1ccc2ccccc2c1 [naphthalene] + O | – | – | – | – | – | 5 ± 1.5 | – | – | 31.7 kPa·kg/mol and 17.8 kPa·kg/mol | 34.7 ± 10 | 90.2 ± 27 | 116 ± 35 | 196 ± 59 | Henry's Law constant ([2]; 333.15 K): 278 ± 83 kPa·kg/mol |
| O=[N+]([O-])c1ccccc1 [nitrobenzene] + O | – | – | – | – | – | 0.175 ± 0.053 | – | – | 1.06 kPa·kg/mol and 1.11 kPa·kg/mol | 2.58 ± 0.78 | 4.13 ± 1.2 | 8.57 ± 2.6 | 17.6 ± 5.3 | – |
| ClC(Cl)C(Cl)(Cl)Cl [pentachloroethane] + O | – | – | – | – | – | 43.4 ± 17 | 471 ± 190 | 1070 ± 430 | 133 kPa·kg/mol and 141 kPa·kg/mol | 163 ± 65 | 268 ± 110 | 505 ± 200 | 989 ± 400 | – |
| CC(C)O [propan-2-ol] + O | – | – | – | – | – | – | – | – | – | – | – | – | – | Henry's Law constant ([2]; 273.25 K): 0.088 kPa·kg/mol; Henry's Law constant ([2]; 298.15 K): 2.14 kPa·kg/mol; Henry's Law constant ([2]; 311.15 K): 1.19 kPa·kg/mol; Henry's Law constant ([2]; 332.15 K): 22.9 kPa·kg/mol |
| CCC#N [propanenitrile] + O | – | – | – | – | – | 0.302 ± 0.091 | – | – | 2.3 kPa·kg/mol and 2.2 kPa·kg/mol | 2.78 ± 0.83 | 5.36 ± 1.6 | 11 ± 3.3 | 14 ± 4.2 | – |
| CCCc1ccccc1 [propylbenzene] + O | – | – | – | – | – | 182 | 1900 | 3160 | – | 505 | 412 | – | 1920 | – |
| ClC(Cl)(Cl)Cl [tetrachloromethane] + O | – | – | – | – | – | 696 ± 210 | 4230 ± 1300 | 7590 ± 2300 | 1770 kPa·kg/mol and 1580 kPa·kg/mol | 1690 ± 510 | – | – | – | – |
| ClC/C=C/CCl [trans-1,4-dichloro-2-butene] + O | – | – | – | – | – | 3.9 ± 1.6 | – | – | 28.2 kPa·kg/mol and 17.7 kPa·kg/mol | 31.6 ± 13 | 96.4 ± 39 | 175 ± 70 | 155 ± 62 | – |
| BrC(Br)Br [tribromomethane] + O | – | – | – | – | – | 7.47 ± 2.2 | – | – | 46.4 kPa·kg/mol and 29.9 kPa·kg/mol | 50.9 ± 15 | 120 ± 36 | 200 ± 60 | 328 ± 98 | – |
| ClC=C(Cl)Cl [trichloroethene] + O | – | – | – | – | – | 249 ± 75 | 1670 ± 500 | 2630 ± 790 | 711 kPa·kg/mol and 721 kPa·kg/mol | 691 ± 210 | 2110 ± 630 | – | 4620 ± 1400 | – |
| FC(Cl)(Cl)Cl [trichlorofluoromethane] + O | – | – | – | – | – | 987 ± 300 | 8110 ± 2400 | 15600 ± 4700 | – | – | – | – | – | – |
| ClC(Cl)Cl [trichloromethane] + O | – | – | – | – | – | 107 ± 32 | 628 ± 190 | 1170 ± 350 | 301 kPa·kg/mol and 324 kPa·kg/mol | 363 ± 110 | 782 ± 230 | – | 1770 ± 530 | – |
